Patent US20080021026A1, “BENZOTHIOPHENE INHIBITORS OF RHO KINASE” (priority 2006, published 2008)
Read-outs that look alike come from different tables or passages of the source.

Experiments:
[1] = target: T1, recombinant N-terminal GST-tagged human Rho kinase 2 (ROCK2, amino acids 1-552) (Homo sapiens, UniProt O75116); assay: In vitro Rho kinase assay (luciferase-based ATP consumption), ROCK2; assay type: biochemical
T1 construct: ROCK2, amino acids 1-552; purchased Invitrogen Inc. PV3759
Method in brief: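 Luciferase-based luminescence of leftover ATP after 2 h at 30 °C, where inhibition raises signal, reports activity of GST-tagged ROCK2 (aa 1-552) at 0.82 μg/ml. Conditions: S6 peptide 100 μg/ml, […], pH 7.5 Tris buffer. Results given as percent of H-1152P control activity.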

[2] = target: T2, recombinant N-terminal GST-tagged human Rho kinase 1 (ROCK1, amino acids 1-535) (Homo sapiens, UniProt Q13464); assay: In vitro Rho kinase assay (luciferase-based ATP consumption), ROCK1; assay type: biochemical
T2 construct: ROCK1, amino acids 1-535; purchased Invitrogen Inc. PV-3691
Method in brief: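 ATP depletion measured by firefly luciferase luminescence after 2 h at 30 °C, with inhibition raising signal and activity expressed relative to H-1152P. Reaction: 0.82 μg/ml recombinant GST-tagged ROCK1 (aa 1-535), S6 peptide 100 μg/ml, […], pH 7.5 Tris buffer.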

[3] = recombinant GST-tagged human ROCK2, luciferase-based ATP consumption, read-out: ROCK2 IC50
[4] = recombinant GST-tagged human ROCK1, luciferase-based ATP consumption, read-out: ROCK1 IC50
[5] = ROCK2 IC50, recombinant GST-tagged human ROCK2, luciferase-based ATP consumption
[6] = ROCK1 IC50, recombinant GST-tagged human ROCK1, luciferase-based ATP consumption

T1 sequence (O75116 1-552): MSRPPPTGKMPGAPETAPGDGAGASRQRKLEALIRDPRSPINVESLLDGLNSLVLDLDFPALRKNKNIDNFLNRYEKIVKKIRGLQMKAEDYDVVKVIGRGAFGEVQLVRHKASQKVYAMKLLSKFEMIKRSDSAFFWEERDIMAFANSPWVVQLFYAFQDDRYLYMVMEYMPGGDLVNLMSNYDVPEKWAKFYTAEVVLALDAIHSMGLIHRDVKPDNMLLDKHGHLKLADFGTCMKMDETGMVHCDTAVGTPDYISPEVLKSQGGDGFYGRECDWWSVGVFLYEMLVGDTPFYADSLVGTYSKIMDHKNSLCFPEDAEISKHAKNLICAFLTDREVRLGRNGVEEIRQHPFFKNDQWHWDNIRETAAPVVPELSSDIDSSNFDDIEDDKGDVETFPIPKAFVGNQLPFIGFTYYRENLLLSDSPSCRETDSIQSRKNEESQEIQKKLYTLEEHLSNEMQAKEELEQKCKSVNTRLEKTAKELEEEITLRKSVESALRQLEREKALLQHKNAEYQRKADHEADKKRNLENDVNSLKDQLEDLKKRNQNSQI
T2 sequence (Q13464 1-535): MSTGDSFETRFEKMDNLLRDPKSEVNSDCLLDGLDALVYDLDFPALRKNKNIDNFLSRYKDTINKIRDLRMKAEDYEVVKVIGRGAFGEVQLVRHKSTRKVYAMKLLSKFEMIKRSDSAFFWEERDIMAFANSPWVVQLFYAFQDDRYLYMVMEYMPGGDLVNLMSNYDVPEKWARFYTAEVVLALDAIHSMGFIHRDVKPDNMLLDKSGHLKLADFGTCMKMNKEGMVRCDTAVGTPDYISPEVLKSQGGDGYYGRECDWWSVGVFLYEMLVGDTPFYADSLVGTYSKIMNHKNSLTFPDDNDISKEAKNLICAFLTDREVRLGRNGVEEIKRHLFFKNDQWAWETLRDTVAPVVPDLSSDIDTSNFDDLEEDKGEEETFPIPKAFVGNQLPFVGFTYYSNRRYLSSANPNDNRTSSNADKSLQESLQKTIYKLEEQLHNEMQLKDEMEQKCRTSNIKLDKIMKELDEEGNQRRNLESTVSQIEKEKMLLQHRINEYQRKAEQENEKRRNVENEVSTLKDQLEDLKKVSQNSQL

Row | IC50 [1, 3] | IC50 [2, 4] | Structure (SMILES) | IC50 [1, 5] | IC50 [2, 6]
1 | < 5 µM | < 5 µM | Cc1c(-c2ccnc(N)n2)sc2ccc(Cc3cccc(OCCN(C)C)c3)cc12 [Example 30, 4-(5-(3-(2-(Dimethylamino)ethoxy)benzyl)-3-methylbenzo[b]thiophen-2-yl)pyrimidin-2-amine] | – | –
2 | < 5 µM | > 5 µM | Cc1c(-c2ccnc(N)n2)sc2ccc(CNC(=O)C(O)CCl)cc12 (stereo not shown) [Example 112, Cc1c(sc2ccc(CNC(═O)C(O)CCl)cc12)-c3ccnc(N)n3] | – | –
3 | < 5 µM | > 5 µM | Cc1ccc(C(=O)NCc2ccc3sc(-c4ccnc(N)n4)c(C)c3c2)cc1F [Example 145, Cc1ccc(cc1F)C(═O)NCc2ccc3sc(c(C)c3c2)-c4ccnc(N)n4] | – | –
4 | < 5 µM | < 5 µM | Cc1c(-c2ccnc(N)n2)sc2ccc(CNC(=O)COc3ccccc3C=O)cc12 [Example 207, Cc1c(sc2ccc(CNC(═O)COc3ccccc3C═O)cc12)-c4ccnc(N)n4] | – | –
5 | < 5 µM | < 5 µM | Cc1c(-c2ccnc(N)n2)sc2ccc(CNC(=O)C3=CCCC3)cc12 [Example 104, Cc1c(sc2ccc(CNC(═O)C3═CCCC3)cc12)-c4ccnc(N)n4] | – | –
6 | < 5 µM | > 5 µM | Cc1c(-c2ccnc(N)n2)sc2ccc(CNC(=O)c3cccc(Br)c3)cc12 [Example 262, Cc1c(sc2ccc(CNC(═O)c3cccc(Br)c3)cc12)-c4ccnc(N)n4] | – | –
7 | < 5 µM | < 5 µM | Cc1c(-c2ccnc(N)n2)sc2ccc(Sc3cccc(O)c3)cc12 [Example 84, 3-(2-(2-Aminopyrimidin-4-yl)-3-methylbenzo[b]thiophen-5-ylthio)phenol] | – | –
8 | > 5 µM | > 5 µM | Cc1c(-c2ccnc(N)n2)sc2ccc(C(=O)N3CCC(NC(=O)OC(C)(C)C)C3)cc12 (stereo not shown) [Example 22, tert-Butyl 1-(2-(2-aminopyrimidin-4-yl)-3-methylbenzo[b]thiophene-5-carbonyl)pyrrolidin-3-ylcarbamate] | – | –
9 | < 5 µM | > 5 µM | Cc1c(-c2ccnc(N)n2)sc2ccc(CNC(=O)c3ccc(-c4ccc(O)cc4)cc3)cc12 [Example 285, Cc1c(sc2ccc(CNC(═O)c3ccc(cc3)-c4ccc(O)cc4)cc12)-c5ccnc(N)n5] | – | –
10 | < 5 µM | > 5 µM | Cc1c(-c2ccnc(N)n2)sc2ccc(CNC(=O)C(F)(F)F)cc12 [Example 105, Cc1c(sc2ccc(CNC(═O)C(F)(F)F)cc12)-c3ccnc(N)n3] | – | –
11 | < 5 µM | > 5 µM | Cc1c(-c2ccnc(N)n2)sc2ccc(CNC(=O)C=Cc3ccc4c(c3)OCO4)cc12 [Example 249, Cc1c(sc2ccc(CNC(═O)C═Cc3ccc4OCOc4c3)cc12)-c5ccnc(N)n5] | – | –
12 | < 5 µM | > 5 µM | Cc1ccccc1OCC(=O)NCc1ccc2sc(-c3ccnc(N)n3)c(C)c2c1 [Example 175, Cc1ccccc1OCC(═O)NCc2ccc3sc(c(C)c3c2)-c4ccnc(N)n4] | – | –
13 | < 5 µM | > 5 µM | Cc1c(-c2ccnc(N)n2)sc2ccc(CNC(=O)c3ccc4ccccc4c3O)cc12 [Example 239, Cc1c(sc2ccc(CNC(═O)c3ccc4ccccc4c3O)cc12)-c5ccnc(N)n5] | – | –
14 | – | – | Cc1c(-c2ccnc(N)n2)sc2ccc(CNC(=O)c3cc(Cl)ccc3Cl)cc12 [Example 247, Cc1c(sc2ccc(CNC(═O)c3cc(Cl)ccc3Cl)cc12)-c4ccnc(N)n4] | < 5 µM | < 5 µM
15 | < 5 µM | < 5 µM | Cc1c(-c2ccnc(N)n2)sc2ccc(CNC(=O)c3cccc(O)c3)cc12 [Example 121, Cc1c(sc2ccc(CNC(═O)c3cccc(O)c3)cc12)-c4ccnc(N)n4] | – | –
16 | < 5 µM | < 5 µM | COc1ccc(NC(=O)c2cccc(Cc3ccc4sc(-c5ccnc(N)n5)c(C)c4c3)c2)cc1 [Example 46, 3-((2-(2-Aminopyrimidin-4-yl)-3-methylbenzo[b]thiophen-5-yl)methyl)-N-(4-methoxyphenyl)benzamide] | – | –
17 | < 5 µM | > 5 µM | Cc1cccc([N+](=O)[O-])c1C(=O)NCc1ccc2sc(-c3ccnc(N)n3)c(C)c2c1 [Example 215, Cc1cccc(c1C(═O)NCc2ccc3sc(c(C)c3c2)-c4ccnc(N)n4)[N+]([O−])═O] | – | –
18 | < 5 µM | < 5 µM | Cc1c(-c2ccnc(N)n2)sc2ccc(CNC(=O)c3ccc(C(F)(F)F)cc3[N+](=O)[O-])cc12 [Example 313, Cc1c(sc2ccc(CNC(═O)c3ccc(cc3[N+]([O−])═O)C(F)(F)F)cc12)-c4ccnc(N)n4] | – | –

Row | IC50 [1, 3] | IC50 [2, 4] | Structure (SMILES) | IC50 [1, 5] | IC50 [2, 6]
19 | < 5 µM | > 5 µM | Cc1c(-c2ccnc(N)n2)sc2ccc(CNC(=O)c3cc(O)ccc3[N+](=O)[O-])cc12 [Example 227, Cc1c(sc2ccc(CNC(═O)c3cc(O)ccc3[N+]([O−])═O)cc12)-c4ccnc(N)n4] | – | –
20 | – | – | Cc1c(-c2ccnc(N)n2)sc2ccc(CNC(=O)c3cccnc3Cl)cc12 [Example 149, Cc1c(sc2ccc(CNC(═O)c3cccnc3Cl)cc12)-c4ccnc(N)n4] | < 5 µM | > 5 µM
21 | < 5 µM | > 5 µM | Cc1c(-c2ccnc(N)n2)sc2ccc(CNC(=O)C3CCc4ccccc4C3)cc12 (stereo not shown) [Example 199, Cc1c(sc2ccc(CNC(═O)C3CCc4ccccc4C3)cc12)-c5ccnc(N)n5] | – | –
22 | < 5 µM | < 5 µM | Cc1c(-c2ccnc(N)n2)sc2ccc(CNC(=O)c3cc(C(C)C)cc(C(C)C)c3O)cc12 [Example 298, CC(C)c1cc(C(C)C)c(O)c(c1)C(═O)NCc2ccc3sc(c(C)c3c2)-c4ccnc(N)n4] | – | –
23 | < 5 µM | > 5 µM | Cc1c(-c2ccnc(N)n2)sc2ccc(CNC(=O)c3ccccc3[N+](=O)[O-])cc12 [Example 179, Cc1c(sc2ccc(CNC(═O)c3ccccc3[N+]([O−])═O)cc12)-c4ccnc(N)n4] | – | –
24 | < 5 µM | < 5 µM | CC(=O)Nc1cccc(Nc2ccc3sc(-c4ccnc(N)n4)c(C)c3c2)c1 [Example 58, N-(3-(2-(2-Aminopyrimidin-4-yl)-3-methylbenzo[b]thiophen-5-ylamino)phenyl)acetamide] | – | –
25 | < 5 µM | < 5 µM | COC(=O)c1cccc(Sc2ccc3sc(-c4ccnc(N)n4)c(C)c3c2)c1 [Example 85, Methyl 3-(2-(2-aminopyrimidin-4-yl)-3-methylbenzo[b]thiophen-5-ylthio)benzoate] | – | –
26 | < 5 µM | < 5 µM | Cc1c(-c2ccnc(N)n2)sc2ccc(Nc3ccnc(O)n3)cc12 [Example 75, 4-(2-(2-Aminopyrimidin-4-yl)-3-methylbenzo[b]thiophen-5-ylamino)pyrimidin-2-ol] | – | –
27 | < 5 µM | < 5 µM | COc1cccc(N(C)c2ccc3sc(-c4ccnc(N)n4)c(C)c3c2)c1 [Example 78, 4-(5-((3-Methoxyphenyl)(methyl)amino)-3-methylbenzo[b]thiophen-2-yl)pyrimidin-2-amine] | – | –
28 | < 5 µM | < 5 µM | COc1ccc([N+](=O)[O-])c(C(=O)NCc2ccc3sc(-c4ccnc(N)n4)c(C)c3c2)c1 [Example 259, COc1ccc(c(c1)C(═O)NCc2ccc3sc(c(C)c3c2)-c4ccnc(N)n4)[N+]([O−])═O] | – | –
29 | < 5 µM | > 5 µM | Cc1ccc(C(=O)NCc2ccc3sc(-c4ccnc(N)n4)c(C)c3c2)cc1Br [Example 287, Cc1ccc(cc1Br)C(═O)NCc2ccc3sc(c(C)c3c2)-c4ccnc(N)n4] | – | –
30 | < 5 µM | < 5 µM | Cc1c(-c2ccnc(N)n2)sc2ccc(Cc3cccc(OCCCN)c3)cc12 [Example 31, 4-(5-(3-(3-Aminopropoxy)benzyl)-3-methylbenzo[b]thiophen-2-yl)pyrimidin-2-amine] | – | –
31 | < 5 µM | < 5 µM | Cc1ccccc1CC(=O)NCc1ccc2sc(-c3ccnc(N)n3)c(C)c2c1 [Example 132, Cc1ccccc1CC(═O)NCc2ccc3sc(c(C)c3c2)-c4ccnc(N)n4] | – | –
32 | < 5 µM | < 5 µM | Cc1c(-c2ccnc(N)n2)sc2ccc(CNC(=O)C(C)(C)C)cc12 [Example 100, Cc1c(sc2ccc(CNC(═O)C(C)(C)C)cc12)-c3ccnc(N)n3] | – | –
33 | < 5 µM | < 5 µM | Cc1cc(C(=O)NCc2ccc3sc(-c4ccnc(N)n4)c(C)c3c2)cc(Cl)n1 [Example 187, Cc1cc(cc(Cl)n1)C(═O)NCc2ccc3sc(c(C)c3c2)-c4ccnc(N)n4] | – | –
34 | > 5 µM | > 5 µM | Cc1c(-c2cccnc2N)sc2ccc(Cl)cc12 [Example 11, 3-(5-Chloro-3-methylbenzo[b]thiophen-2-yl)pyridin-2-amine] | – | –
35 | < 5 µM | < 5 µM | Cc1c(-c2ccnc(N)n2)sc2ccc(CNC(=O)c3c4ccccc4cc4ccccc34)cc12 [Example 297, Cc1c(sc2ccc(CNC(═O)c3c4ccccc4cc5ccccc35)cc12)-c6ccnc(N)n6] | – | –

Row | Structure (SMILES) | IC50 [1, 3] | IC50 [2, 4] | IC50 [1, 5] | IC50 [2, 6]
36 | COc1ccc(C(=O)NCc2ccc3sc(-c4ccnc(N)n4)c(C)c3c2)cc1 [Example 138, COc1ccc(cc1)C(═O)NCc2ccc3sc(c(C)c3c2)-c4ccnc(N)n4] | < 5 µM | > 5 µM | – | –
37 | COC(=O)c1ccc(C(=O)NCc2ccc3sc(-c4ccnc(N)n4)c(C)c3c2)cc1 [Example 209, COC(═O)c1ccc(cc1)C(═O)NCc2ccc3sc(c(C)c3c2)-c4ccnc(N)n4] | < 5 µM | < 5 µM | – | –
38 | CCCCOc1ccc(C(=O)NCc2ccc3sc(-c4ccnc(N)n4)c(C)c3c2)cc1 [Example 257, CCCCOc1ccc(cc1)C(═O)NCc2ccc3sc(c(C)c3c2)-c4ccnc(N)n4] | > 5 µM | > 5 µM | – | –
